From ChEMBL document CHEMBL1782002, “Metachromins U-W: cytotoxic merosesquiterpenoids from an Australian specimen of the sponge Thorecta reticulata” (J Nat Prod, 2011)

Key:
SF-268 = assay: Cytotoxicity against human SF268 cells after 48 hrs by SRB assay; format: functional; conditions: SF-268, 48 h
MCF7 = assay: Cytotoxicity against human MCF7 cells after 48 hrs by SRB assay; format: functional; conditions: MCF7, 48 h
NCI-H460 = assay: Cytotoxicity against human H460 cells after 48 hrs by SRB assay; format: functional; conditions: NCI-H460, 48 h
HT-29 = assay: Cytotoxicity against human HT-29 cells after 48 hrs by SRB assay; format: functional; conditions: HT-29, 48 h
[1] = Cytotoxicity against […] cells after 48 hrs by SRB assay; format: cell-based, Cricetulus griseus; conditions: chinese hamster, CHO-K1 cells

`C=C1CCCC(C)(C)C1CCC1(C)C=Cc2cc(O)cc(OC)c2O1` (stereo not given) [METACHROMIN U] gave a GI50 (SF-268) of 32 µM, a GI50 (MCF7) of 29 µM and a GI50 (NCI-H460) of 37 µM. The GI50 (HT-29) was 30 µM and the GI50 at 48 h [1] was 27 µM.

Compound `C=C1CCCC(C)(C)C1CC/C(C)=C/Cc1cc(O)ccc1O` (stereo not given) [METACHROMIN V] has a GI50 (SF-268) of 5.1 µM, a GI50 (MCF7) of 3.2 µM and a GI50 (NCI-H460) of 5.1 µM. It also gave a GI50 (HT-29) of 10 µM and a GI50 at 48 h [1] of 2.1 µM.

Work on `C=C1CCCC(C)(C)C1CCc1ccc2c(c1)C(=O)C=C(OC)C2=O` (stereo not given) [METACHROMIN W] yielded a GI50 (SF-268) of 104 µM, a GI50 (MCF7) of 107 µM and a GI50 (NCI-H460) of 50 µM. The GI50 (HT-29) was 130 µM and the GI50 at 48 h [1] was 89 µM.

`CC(=O)O[C@H]1C(=O)[C@@]2(C)[C@H]([C@H](OC(=O)c3ccccc3)[C@]3(O)C[C@H](OC(=O)[C@H](O)[C@@H](NC(=O)c4ccccc4)c4ccccc4)C(C)=C1C3(C)C)[C@]1(OC(C)=O)CO[C@@H]1C[C@@H]2O` [PACLITAXEL] showed a GI50 (SF-268) of 0.012 µM, a GI50 (MCF7) of 0.012 µM and a GI50 (NCI-H460) of 0.024 µM. The GI50 (HT-29) was 0.012 µM and the GI50 at 48 h [1] was 5.9 µM.

`CN[C@@H]1C[C@H]2O[C@@](C)([C@@H]1OC)n1c3ccccc3c3c4c(c5c6ccccc6n2c5c31)C(=O)NC4` [STAUROSPORINE] showed a GI50 (SF-268) of 0.044 µM, a GI50 (MCF7) of 11 µM and a GI50 (NCI-H460) of 3.6 µM. The GI50 (HT-29) was 3.6 µM and the GI50 at 48 h [1] was 0.13 µM.
